# Residues, ends and D or L forms follow the SMILES beside them.
# Tested on: hamsters
# Assay: Ovulation enhancement study in hamsters (ova count after 4 days of subcutaneous dosing)
# Type: in vivo
# Settings: ova counted on fifth day, untreated control mean 11.3
# Experimental: In one study carried out with hamsters utilizing H--Thr--Arg--Lys--Arg--OH diacetate, each of six animals was injected subcutaneously at various dosage levels as indicated in the Table for each of the four days of the estrous cycle. On the fifth day, the animals were sacrificed, the left and right ovaries and oviducts of each animal collected, sectioned, stained, and the ova counted. The figures given in the second column are the mean numbers of ova for six animals at each dosage level. In a control group of 20 animals which were not treated with the ovulation enhancing compound, the mean number of ova counted under similar conditions was 11.3.
smiles,measurement,setting,value
"C[C@@H](O)[C@H](N)C(=O)N[C@@H](CCCNC(=N)N)C(=O)N[C@@H](CCCCN)C(=O)N[C@@H](CCCNC(=N)N)C(=O)O [H--Thr--Arg--Lys--Arg--OH diacetate, H--Thr--Arg--Lys--Arg--OH] (H-TRKR-OH)",Number of OVA (mean number of ova for six animals),0.10 μgm/100 gm/day on each of the four days of the estrous cycle,13.7
same,Number of OVA (mean number of ova for six animals),0.30 μgm/100 gm/day on each of the four days of the estrous cycle,14.1
same,Number of OVA (mean number of ova for six animals),3.00 μgm/100 gm/day on each of the four days of the estrous cycle,15.5
same,Number of OVA (mean number of ova for six animals),30.00 μgm/100 gm/day on each of the four days of the estrous cycle,15.6

# From US4181717A, “Ovulation enhancing peptides” (Research Corporation, priority 1978, dated 1980)
